Measured values from patent US11840521B2, “Modulators of Mas-related G-protein receptor X4 and related products and methods” (Escient Pharmaceuticals, Inc., priority 2019, dated 2023).
Where two headings read alike, the source gives them in different places.

Target: MRGPRX4 (Homo sapiens, UniProt Q96LA9)
Assay: MRGPR X4 antagonist activity, IP-One Gq HTRF assay in stably transfected HEK cells (versus agonist bilirubin, deoxycholic acid, conjugated bilirubin, urobilin, obeticholic acid or BAR502)
Assay type: cell-based
Design: expressed in transfected cells; host or cells: HEK cells, stably transfected
Protocol: HEK cells stably transfected to express human MRGPR X4 were maintained in an incubator at 37° C. with 5% CO2 and grown in DMEM media with 10% fetal bovine serum (FBS) and 1% each of sodium pyruvate, Glutamax, penicillin/streptomycin, and Geneticin. HEK cells stably transfected to express mouse MRGPR A1 were maintained in the same incubator and grown in DMEM media with 10% FBS, 1% each of sodium pyruvate, Glutamax, penicillin/streptomycin, Geneticin, and 2.2 mg/mL Hygromycin.
Cells were plated in a 384-well assay plate at 20,000 cells per well in 12 μL of Opti-MEM and kept in an incubator overnight. On the day of the assay, compounds solubilized at 10 mM in DMSO were added as a 10-point curve (10 uM final top concentration with 1:3 serial dilutions) using a Tecan D300E digital dispenser. […] Final concentrations of DMSO were kept consistent across the plate. Plates were incubated in the dark for 1 h at 37° C. and then for 30 minutes at room temperature. IP-1 standards and HTRF detection reagents were added according to the IP-One—Gq Kit purchased from Cisbio (part number 62IPAPEJ) and incubated in the dark for 1 h at room temperature. The plate was read on a Molecular Devices SpectraMax iD5 plate reader. The HTRF ratio was calculated from the raw data and graphed using GraphPad Prism to calculate an IC50 value for each compound.

[1] = versus 10 μM Bilirubin agonist, HEK cells expressing human MRGPR X4, read-out: MRGPR4 Antagonist Activity

MRGPRX4, sequence (Q96LA9 whole entry): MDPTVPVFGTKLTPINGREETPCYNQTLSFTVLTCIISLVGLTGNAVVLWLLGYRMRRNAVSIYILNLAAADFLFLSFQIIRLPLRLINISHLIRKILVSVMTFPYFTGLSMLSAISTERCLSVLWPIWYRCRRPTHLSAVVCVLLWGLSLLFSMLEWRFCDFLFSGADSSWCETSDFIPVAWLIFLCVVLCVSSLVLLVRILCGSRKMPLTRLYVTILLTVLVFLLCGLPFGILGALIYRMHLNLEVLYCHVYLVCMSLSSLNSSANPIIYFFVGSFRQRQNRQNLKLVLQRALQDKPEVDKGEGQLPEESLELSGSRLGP

Work on `O=C(O)c1cccc(COc2cccc(Cl)c2Cl)c1` [Compound 3-4] yielded an IC50 [1] of 100 to 500 nM.
Compound `CC(C)(C)c1ccccc1OCc1cccc(C(=O)O)c1` [Compound 1-144] has an IC50 [1] greater than 2500 nM.
`O=C(O)c1cccc(COc2ccc3sccc3c2)c1` [Compound 1-134] was tested, and the IC50 [1] was 100 to 500 nM.
Compound `O=C(O)c1cccc(COc2ccccc2Cl)c1` [Compound 1-22] has an IC50 [1] greater than 2500 nM.
For `O=C(O)c1cccc(COc2ccc(F)cc2C(F)(F)F)c1` [Compound 1-91], the IC50 [1] was 500 to 1000 nM.
Compound `COC(=O)c1cccc(COc2ccc3ccccc3c2)n1` [Compound 1-12] has an IC50 [1] of less than 100 nM.
`COc1cc(COc2ccc(Cl)cc2Cl)cc(C(=O)O)c1` [Compound 4-5] gave an IC50 [1] of less than 100 nM.
Work on `O=C(O)c1cccc(COc2ccc(C(F)(F)F)cc2Br)c1` [Compound 1-120] yielded an IC50 [1] of less than 100 nM.
`O=C(O)c1cccc(COc2ccc(C(F)(F)F)c(F)c2)c1` [Compound 1-112] was tested, and the IC50 [1] was less than 100 nM.
`O=C(O)c1cccc(COc2ccc3c(c2)OC(F)(F)O3)c1` [Compound 1-61] gave an IC50 [1] of 500 to 1000 nM.
`O=C(O)c1cccc(COc2ccc(C(F)(F)F)cc2)c1F` [Compound 4-28] gave an IC50 [1] of less than 100 nM.
`O=C(O)c1cccc(COc2c(Cl)cccc2Cl)c1` [Compound 1-25] was tested, and the IC50 [1] was greater than 2500 nM.
In the case of `C[C@@H](O)[C@H](NC(=O)c1cccc(COc2ccc(C(F)(F)F)cc2Cl)c1)C(=O)O` [Compound 54-8], the IC50 [1] is reported as 500 to 1000 nM.
`CC(Oc1ccc(C(F)(F)F)cc1Cl)c1cccc(C(=O)O)c1` (stereo not drawn) [Compound 62-1, 3-(1-(2-chloro-4-(trifluoromethyl)phenoxy)ethyl)benzoic acid] showed an IC50 [1] of less than 100 nM.
`NCCNC(=O)c1cccc(COc2ccc(C(F)(F)F)cc2Cl)c1` [Compound 53-2] was tested, and the IC50 [1] was 1000 to 2500 nM.
In the case of `FC(F)(F)c1ccc(OCc2cccc(-c3nnn[nH]3)c2)cc1Cl` [Compound 17-2], the IC50 [1] is reported as less than 100 nM.
`O=C(O)c1cccc(COc2ccc3ccncc3c2)c1` [Compound 1-98] gave an IC50 [1] of 500 to 1000 nM.
In the case of `COC(=O)c1cccc(COc2ccc(C(F)(F)F)cc2Cl)n1` [Compound 1-11], the IC50 [1] is reported as less than 100 nM.
With `Cc1ccc(OCc2cccc(C(=O)O)c2)c(C)c1` [Compound 3-7] the IC50 [1] was 1000 to 2500 nM.
Work on `COc1cccc(OCc2cccc(C(=O)O)c2)c1` [Compound 1-39] yielded an IC50 [1] of 100 to 500 nM.
`COc1ccc(OCc2cccc(C(=O)O)c2)c(F)c1F` [Compound 1-96] showed an IC50 [1] of 500 to 1000 nM.
`Cc1cc(C(F)(F)F)ccc1OCc1cc(C#N)cc(C(=O)O)c1` [Compound 32-2] gave an IC50 (read-out: IC50 (10 μM BAR502) nM, MRGPRX4 antagonists versus 10 μM BAR502 agonist) of 17 nM and an IC50 [1] of less than 100 nM.
For `N#Cc1cccc(COc2ccc(Cl)cc2Cl)c1` [Compound 3-1], the IC50 [1] was 500 to 1000 nM.
`O=C(O)c1cccc(Oc2ccc(Cl)cc2Cl)c1` [Compound 16-1, 3-(2,4-dichlorophenoxy)benzoic acid] gave an IC50 [1] of 1000 to 2500 nM.
For `CNC(=O)CNC(=O)c1cccc(COc2ccc(C(F)(F)F)cc2Cl)c1` [Compound 52-27], the IC50 [1] was 500 to 1000 nM.
Work on `CC(C)c1ccccc1OCc1cccc(C(=O)O)c1` [Compound 1-146] yielded an IC50 [1] greater than 2500 nM.
Compound `O=C(NC1CCCC(O)C1)c1cccc(COc2ccc(C(F)(F)F)cc2Cl)c1` (stereo not drawn) [Compound 52-19] has an IC50 [1] of 500 to 1000 nM.
With `Cc1cc(C(F)(F)F)ccc1OCc1cccc(-c2nnn[nH]2)c1` [Compound 17-11] the IC50 [1] was less than 100 nM.
Compound `O=C(O)c1cccc(COc2ccc3ccccc3c2)n1` [Compound 1-30] has an IC50 [1] of less than 100 nM.
`COC(=O)c1cccc(COc2ccc(OC(F)(F)F)cc2)c1` [Compound 1-6] gave an IC50 [1] of 1000 to 2500 nM.
Work on `O=C(O)c1cccc(COc2ccc(OC(F)F)cc2)c1` [Compound 1-135] yielded an IC50 [1] of 100 to 500 nM.
Work on `COc1ccc(OCc2cccc(C(=O)O)c2)c2ccccc12` [Compound 1-147] yielded an IC50 [1] of 1000 to 2500 nM.
